We go through two compounds from patent US20250316381A1, “Assessment of Relative Quantitative Effect of Somatic Point Mutations at the Individual Tumor Level for Prioritization” (Hadasit Medical Research Services and Development Ltd., priority 2022, published 2025).

The test system of assay [1] is human cancer cell lines. The conditions noted are these: GDSC2; BRAF variants, "Very Strong Drivers" group (includes V600E class I variant) versus all other groups; cited from earlier work.
In assay [2] the test system is human cancer cell lines. The assay is described as follows: GDSC2 IC50 drug screening of cancer cell lines, divided by cancer gene TVA sub-groups. In kind it is cell-based. The conditions noted are these: except for two cell lines in "Strong Drivers" group. The text has this:
Bulk data of “IC50s Drug Screening” was obtained from Genomics of Drug Sensitivity in Cancer website. Bulk mutation data for cell lines was obtained from Cell Model Passports website.
The analysis was focused on pairs of drugs and genetic alterations that met the following criteria in GDSC's database: (i) drug response associated with a cancer gene variant (ii) at least 50 cell lines harboring the cancer gene alteration (iii) effect size above 0.7 (above 0.5 indicates a moderate effect size and above 1 indicates a large effect size) (iv) drug-gene association is statistically significant (false discovery rate (FDR) p-value<0.1) and (v) the drug effect on the mutated protein of associated pathways can explain the association.
For comparison of response to drugs between genes variants' TVA values, samples were binned according to their gene variant TVA score and according to appearance in the drivers' binomial catalogue. Non-drivers were defined as variants absent from the binomial catalogue with TVA≤1.5. This larger TVA value for variants not in the catalog enlarges the number of variants in the non-driver group. […]
Rare pathogenic variants are becoming important in the inter-individual variability in drug response. […] Genomic features and drug response associations were analyzed from GDCS's analysis of variance model that met certain criteria (see Materials and Methods). […]

Regarding `CCCS(=O)(=O)Nc1ccc(F)c(C(=O)c2c[nH]c3ncc(Cl)cc23)c1F` [PLX4720], the “IC50 of cancer cell lines” value in the assay on human cancer cell lines [1] is “distinct low IC50”.
Turning to `CC(C)(C)c1nc(-c2cccc(NS(=O)(=O)c3c(F)cccc3F)c2F)c(-c2ccnc(N)n2)s1` [Dabrafenib], the “association of TVA's sub-groups of BRAF variants with drug response” value in the assay with human cancer cell lines [2] is “associated with drug response”.
